Experimental data published in article PMC10138506, “Design, Synthesis and Cytotoxic Activity of Novel Salicylaldehyde Hydrazones against Leukemia and Breast Cancer” (International Journal of Molecular Sciences, 2023).
Where two headings read alike, the source gives them in different places.

Assays:
HL-60 cells = test: MTT-dye reduction cytotoxicity assay, HL-60; format: cell-based, human; conditions: for IC50: Homo sapiens, HL-60; for SI (selectivity index) HL-60: SI = IC50 (HEK-293)/IC50 (cancer cells)
Description: (§1) The research included four leukemic and three cancer human cell lines: HL-60 (acute myeloid leukemia), SKW-3 (KE-37 derivative) (T-cell leukemia), BV-173 and K-562 (chronic myeloid leukemia), MDA-MB-231 (ER-negative breast carcinoma), MCF-7 (ER-positive breast adenocarcinoma), and SaOS-2 (osteogenic sarcoma). The cells were provided from the German Collection of Microorganisms and Cell Cultures (DSMZ, Braunschweig, Germany). The solid tumor cell lines (MDA-MB-231, MCF-7, and SaOS-2) were incubated in 90% RPMI-1640 supplemented with 10% fetal bovine serum (FBS), non-essential amino acids, 1 mM sodium pyruvate, and […] human insulin as monolayer adherent cultures. The remaining cell lines were cultivated as a suspension culture in cell culture flasks at 37 °C in an incubator “BB 16-Function Line” Heraeus (Kendro, Hanau, Germany) with humidified atmosphere and 5% CO2 under standard conditions–RPMI-1640 liquid media supplemented with 10% FBS and 2 mM L-glutamine. The cells were kept in log phase by supplementing with fresh media after removing cell suspension aliquots two or three times each week.
(§2) At least eight wells were used for each concentration.

KE-37 cells = test: MTT-dye reduction cytotoxicity assay, KE-37; format: cell-based, human; conditions: for IC50: Homo sapiens, KE-37; for SI (selectivity index) KE-37: SI = IC50 (HEK-293)/IC50 (cancer cells)
Description: as §1, §2

K-562 cells = test: MTT-dye reduction cytotoxicity assay, K-562; format: cell-based, human; conditions: for IC50: Homo sapiens, K562; for SI (selectivity index) K-562: SI = IC50 (HEK-293)/IC50 (cancer cells)
Description: as §1, §2

BV-173 cells = test: MTT-dye reduction cytotoxicity assay, BV-173; format: cell-based, human; conditions: for IC50: Homo sapiens, BV-173; for SI (selectivity index) BV-173: SI = IC50 (HEK-293)/IC50 (cancer cells)
Description: as §1, §2

SaOS-2 cells = test: MTT-dye reduction cytotoxicity assay, SaOS-2; format: cell-based, human; conditions: for IC50: Homo sapiens, SAOS-2; for SI (selectivity index) SaOS-2: SI = IC50 (HEK-293)/IC50 (cancer cells)
Description: as §1, §2

MDA-MB-231 cells = test: MTT-dye reduction cytotoxicity assay, MDA-MB-231; format: cell-based, human; conditions: for IC50: Homo sapiens, MDA-MB-231; for SI (selectivity index) MDA-MB-231: SI = IC50 (HEK-293)/IC50 (cancer cells)
Description: as §1, §2

MCF-7 cells = test: MTT-dye reduction cytotoxicity assay, MCF-7; format: cell-based, human; conditions: for IC50: Homo sapiens, MCF7; for SI (selectivity index) MCF-7: SI = IC50 (HEK-293)/IC50 (cancer cells)
Description: as §1, §2

[1] = MTT-dye reduction cytotoxicity assay, normal HEK-293; conditions: human
Description: (§3) To assess the selectivity of the newly synthesized derivatives, they were tested on the normal human embryonic kidney HEK-293 cell line. The derived IC50 values were used to calculate the selectivity index according to the formula SI = IC50 (normal cells)/IC50 (cancer cells).
The cytotoxic activity of the examined substances was determined using Mossman’s MTT [3-(4,5-dimethylthiazol-2-yl)-2,5-diphenyltetrazolium bromide] dye reduction assay. The approach is based on the reduction of the yellow tetrazolium salt MTT to a violet formazan in live cells via mitochondrial succinate dehydrogenase. In brief, exponentially developing cells were seeded at a density of 1 × 10^5 cells per ml in 96-well flat-bottomed microplates (100 μL/well), and after 24 h of incubation at 37 °C, they were treated to varied doses of the tested substances for 72 h. At least eight wells were used for each concentration. Following the incubation with the test compounds, aliquots of 10 μL MTT solution (10 mg/mL in PBS) were applied to each well. The microplates were then incubated at 37 °C for 4 h before the MTT-formazan crystals were dissolved with 100 μL/well 5% HCOOH in 2-propanol. The MTT-formazan absorbance was measured at 580 nm using a microprocessor-controlled microplate reader (Labexim LMR-1).
The cell survival data were standardized as a percentage of the untreated control (set as 100% viability). The biological data were processed statistically using Student’s t-test, where values were considered statistically significant at p ≤ 0.05. The corresponding IC50 values were obtained to allow quantitative merit for the assessment of the relative potencies of the compounds under investigation. Each data point represents the arithmetic mean ± standard deviation (sd) of at least eight independent experiments.

[2] = tested on: HL-60, KE-37, K-562, BV-173, SaOS-2, MDA-MB-231, MCF-7 cell lines; test: Average over the cancer cell lines tested (LE, SI); format: cell-based, human; conditions: average over seven cancer cell lines
Description: as §3
The training set of salicylaldehyde hydrazones contained 11 compounds synthesized and tested before in our Lab. Their anticancer activities were measured and expressed as IC50 values on the following cell lines: HL-60, KE-37, K-562, BV-173, SaOS-2, MDA-MB-231, and MCF-7. For the purposes of SAR analysis, the IC50 values were converted in p-units (−logIC50) and ligand efficiencies (LEs) were calculated according to the formula: LE = pIC50/n, where n is the count of non-hydrogen atoms in the molecule.

[3] = training set, some activities published before [26-32], the rest measured for this study, read-out: IC50 ± standard deviation, HL-60
[4] = training set, some activities published before [26-32], the rest measured for this study, read-out: IC50 ± standard deviation, KE-37
[5] = training set, some activities published before [26-32], the rest measured for this study, read-out: IC50 ± standard deviation, BV-173
[6] = training set, some activities published before [26-32], the rest measured for this study, read-out: IC50 ± standard deviation, SaOS-2
[7] = training set, some activities published before [26-32], the rest measured for this study, read-out: IC50 ± standard deviation, MDA-MB-231
[8] = training set, some activities published before [26-32], the rest measured for this study, read-out: IC50 ± standard deviation, MCF-7
[9] = 72 h treatment, read-out: IC50 exp, HL-60
[10] = 72 h treatment, read-out: IC50 exp, KE-37
[11] = 72 h treatment, read-out: IC50 exp, K-562
[12] = 72 h treatment, read-out: IC50 exp, BV-173
[13] = 72 h treatment, read-out: IC50 exp, SaOS-2
[14] = 72 h treatment, read-out: IC50 exp, MDA-MB-231
[15] = 72 h treatment, read-out: IC50 exp, MCF-7
[16] = HEK-293 cells (normal human embryonic kidney)
[17] = compound 13 versus benzoyl analog

O=C(N/N=C/c1cc([N+](=O)[O-])ccc1O)c1ccncc1 [Compound 8]
IC50 (HL-60 cells; [3]): 15 ± 2.4 µM | IC50 (KE-37 cells; [4]): 17 ± 3.1 µM | IC50 (K-562 cells; training set, some activities published before [26-32], the rest measured for this study, read-out: IC50 ± standard deviation, K-562): 19 ± 2.7 µM | Ligand Efficiency (LE) K-562 (K-562 cells; LE = pIC50/number of heavy atoms): 0.225 | IC50 (BV-173 cells; [5]): 10.2 ± 1.1 µM | IC50 (SaOS-2 cells; [6]): 35.7 ± 4.3 µM | IC50 (MDA-MB-231 cells; [7]): 72.3 ± 5.6 µM | IC50 (MCF-7 cells; [8]): 0.18 ± 0.03 µM

COc1ccc(O)c(/C=N/NC(=O)c2ccccc2)c1 [Compound 9]
IC50 (HL-60 cells; [3]): 5.29 ± 1.2 µM | IC50 (KE-37 cells; [4]): 3.38 ± 1 µM | IC50 (BV-173 cells; [5]): 3.15 ± 0.8 µM | IC50 (MDA-MB-231 cells; [7]): 4.46 ± 1.1 µM | IC50 (MCF-7 cells; [8]): 0.91 ± 0.3 µM

COc1ccc(O)c(/C=N/NC(=O)c2ccc(O)cc2)c1 [Compound 10]
IC50 (HL-60 cells; [3]): 13.8 ± 3.1 µM | IC50 (KE-37 cells; [4]): 14.8 ± 2.5 µM | IC50 (BV-173 cells; [5]): 3.86 ± 0.9 µM | IC50 (MDA-MB-231 cells; [7]): 12.1 ± 1.9 µM | IC50 (MCF-7 cells; [8]): 3.54 ± 0.5 µM

COc1ccc(O)c(/C=N/NC(=O)c2ccncc2)c1 [Compound 11]
IC50 (HL-60 cells; [3]): 6.68 ± 1.4 µM | IC50 (KE-37 cells; [4]): 10.9 ± 2.2 µM | IC50 (BV-173 cells; [5]): 2.95 ± 0.8 µM | IC50 (MDA-MB-231 cells; [7]): 5.58 ± 1.3 µM | IC50 (MCF-7 cells; [8]): 3 ± 0.6 µM

COc1ccc(C=NNC(=O)c2ccccc2)c(O)c1 [Compound 12, 4-methoxysalicylaldehyde benzoylhydrazone]
IC50 (HL-60 cells; [9]): 0.04 ± 0.005 µM | SI (selectivity index) HL-60 (HL-60 cells): 941 | IC50 (KE-37 cells; [10]): 1.99 ± 0.17 µM | SI (selectivity index) KE-37 (KE-37 cells): 19 | IC50 (K-562 cells; [11]): 0.03 ± 0.002 µM | SI (selectivity index) K-562 (K-562 cells): 1254 | IC50 (BV-173 cells; [12]): 1.21 ± 0.11 µM | SI (selectivity index) BV-173 (BV-173 cells): 31 | IC50 (SaOS-2 cells; [13]): 1.68 ± 0.15 µM | SI (selectivity index) SaOS-2 (SaOS-2 cells): 22 | IC50 (MDA-MB-231 cells; [14]): 2.31 ± 0.25 µM | SI (selectivity index) MDA-MB-231 (MDA-MB-231 cells): 16 | IC50 (MCF-7 cells; [15]): 0.23 ± 0.02 µM | SI (selectivity index) MCF-7 (MCF-7 cells): 164 | IC50 at 72 h [1, 16]: 37.6 ± 3.41 µM | average SI [2]: 350 | melting point: 182 to 183 °C

COc1ccc(C=NNC(=O)c2ccc(O)cc2)c(O)c1 [Compound 13, 4-methoxysalicylaldehyde-4-hydroxybenzoylhydrazone]
IC50 (HL-60 cells; [9]): 8.9 ± 2.47 µM | SI (selectivity index) HL-60 (HL-60 cells): 6 | IC50 (KE-37 cells; [10]): 10.8 ± 2.81 µM | SI (selectivity index) KE-37 (KE-37 cells): 5 | IC50 (K-562 cells; [11]): 8.75 ± 1.29 µM | SI (selectivity index) K-562 (K-562 cells): 6 | reduction of cytotoxicity by hydroxy group in the benzoyl ring, K-562 (K-562 cells; [17]): 292 fold | IC50 (BV-173 cells; [12]): 3.88 ± 1.16 µM | SI (selectivity index) BV-173 (BV-173 cells): 15 | reduction of cytotoxicity by hydroxy group in the benzoyl ring, BV-173 (BV-173 cells; [17]): 3 fold | IC50 (SaOS-2 cells; [13]): 26 ± 3.65 µM | SI (selectivity index) SaOS-2 (SaOS-2 cells): 2 | reduction of cytotoxicity by hydroxy group in the benzoyl ring, sarcomic cells (SaOS-2 cells; [17]): 15.5 fold | IC50 (MDA-MB-231 cells; [14]): 2.9 ± 0.32 µM | SI (selectivity index) MDA-MB-231 (MDA-MB-231 cells): 20 | reduction of cytotoxicity by hydroxy group in the benzoyl ring, MDA-MB-231 (MDA-MB-231 cells; [17]): 1.25 fold | IC50 (MCF-7 cells; [15]): 1.38 ± 0.08 µM | SI (selectivity index) MCF-7 (MCF-7 cells): 41 | reduction of cytotoxicity by hydroxy group in the benzoyl ring, MCF-7 (MCF-7 cells; [17]): 6 fold | IC50 at 72 h [1, 16]: 56.7 ± 4.35 µM | average SI [2]: 14 | melting point: 216 to 217 °C

COc1ccc(C=NNC(=O)c2ccncc2)c(O)c1 [Compound 14, 4-methoxysalicylaldehyde isonicotinoylhydrazone]
IC50 (HL-60 cells; [9]): 0.06 ± 0.004 µM | SI (selectivity index) HL-60 (HL-60 cells): 685 | IC50 (KE-37 cells; [10]): 2.26 ± 0.73 µM | SI (selectivity index) KE-37 (KE-37 cells): 18 | IC50 (K-562 cells; [11]): 0.05 ± 0.008 µM | SI (selectivity index) K-562 (K-562 cells): 821 | IC50 (BV-173 cells; [12]): 0.97 ± 0.12 µM | SI (selectivity index) BV-173 (BV-173 cells): 42 | IC50 (SaOS-2 cells; [13]): 1.66 ± 0.24 µM | SI (selectivity index) SaOS-2 (SaOS-2 cells): 25 | IC50 (MDA-MB-231 cells; [14]): 1.22 ± 0.19 µM | SI (selectivity index) MDA-MB-231 (MDA-MB-231 cells): 34 | IC50 (MCF-7 cells; [15]): 0.23 ± 0.04 µM | SI (selectivity index) MCF-7 (MCF-7 cells): 179 | IC50 at 72 h [1, 16]: 41.1 ± 2.05 µM | average SI [2]: 258

N[C@@H](Cc1ccc(N(CCCl)CCCl)cc1)C(=O)O [Melphalan, 2-amino-3-[4-bis(2-chloroethyl)amino]phenylpropanoic acid, reference compound]
IC50 (SaOS-2 cells; [13]): 31.4 ± 5.4 µM | IC50 (SaOS-2 cells; [6]): 31.4 ± 5.4 µM | IC50 at 72 h [1]: 24.8 ± 2.9 µM
